Experimental findings from patent US20110092521A1, “Methods of Treating Diseases Using Inhibitors of Nucleoside Phosphorylases and Nucleosidases” (priority 2006, published 2011) are described below.

“Also recorded” adds a separate entry of the source.

In data set [1] the test system is TRAMP (transgenic adenocarcinoma of mouse prostate) mice. The data set is described as follows: Treatment of TRAMP mice (tumour mass, histology, MRI). It is filed as in vivo. Particulars: for prostate cancer progression in the TRAMP mouse model: administered either alone or in combination with MTA. Here is the method:
MRI experiments were performed using a 9.4 T 21 cm bore horizontal bore magnet (Magnex Scientific) Varian INOVA MRI system (Fremont, Calif.) equipped with a 28 mm inner diameter quadrature birdcage coil. Mice were anesthetized with isoflurane inhalation anesthesia (1-1.5% in 100% O2 administered via a nose cone) and positioned in the MRI coil. Body temperature was maintained (37-38° C.) using a homeothermic warming system. After acquiring scout images, multi-slice spin-echo imaging with an echo time of 18 ms and a repetition time of 400 ms ms was performed. A 40 mm field of view with a 256×256 matrix size was used. Nine to 15 slices along the transverse, sagittal, and coronal planes were acquired in each multi-slice experiment with a slice thickness of 1 mm and the gap between slices of 0.5 mm. MRI data were processed off-line with MATLAB-based MRI analysis software.
Long-Term: Sterile solutions of 100 μM compound (2) (pH ˜6.4). Water bottles were autoclaved prior to filling with sterile inhibitor solutions. Water consumption was monitored every other day, with fresh inhibitor solution being administered to prevent bacterial growth. Mice were control-sacrificed and tissues (genitourinary system, liver, lungs) were collected for histology and polyamine analysis. Mass and dimensions of excised genitourinary system tumours were recorded. Sections of small intestine were also removed for toxicity analysis via H&E staining.

The test system of data set [2] is FaDu xenografts. The data set is described as follows: FaDu xenograft studies in NOD-SCID mice. It counts as in vivo, mouse. Here is the method: NOD-SCID mice (6-8 weeks old) were obtained from Jackson Laboratory (Bar Harbor, Me.). FaDu cells (10^6) were inoculated into the dorsum of the hind foot. After 5 days, mice were treated with 9 mg/kg or 21 mg/kg body weight of compound (2) in drinking water or by daily i.p. injections of 5 mg/kg body weight of compound (2). After inoculation mice were assigned to treatment or control groups (n=5). Tumor volume (V) was determined from: V=(4/3)*(22/7)*1/8*(length*width*height). Differences between treatment cohorts were determined using the Student's t test Mice were weighed every 4-5 days, monitored for hair loss, loss of appetite, vomiting and diarrhoea. Total and differential blood and bone marrow analyses were performed after treatment with compound (2).

On to `CSC[C@H]1N[C@@H](c2c[nH]c3c(N)ncnc23)C(O)C1O` (stereo partly drawn) [compound (3)], for which the “prostate cancer progression in the TRAMP mouse model” value in data set [1] is “inhibits prostate cancer progression”.

For `CSC[C@H]1CN(Cc2c[nH]c3c(N)ncnc23)C[C@@H]1O` [compound (2), (3R,4S)-1-[(9-deazaadenin-9-yl)methyl]-3-hydroxy-4-(methylthiomethyl)pyrrolidine], the “regrowth of tumor after removal of treatment” value in data set [2] (28 days without treatment after 28 day therapy, mice receiving the two highest doses) is on record as “no regrowth of tumor”. For the same molecule, in data set [2] (NOD-SCID mice with FaDu tumors, after 28 days of therapy), the “differences in animal weight or in total and differential blood counts between treatment and control groups” value is reported as “No significant differences”. The “growth of established FaDu xenografts (tumor growth)” value in data set [2] (NOD-SCID mice, 9 or 21 mg/kg in drinking water or 5 mg/kg daily i.p., from day 5, versus controls) is reported as “significantly slower than in controls; also recorded: significantly delays the growth”. Also, the “tumour growth and metastasis in TRAMP mice” value in data set [1] (100 μM via drinking water, approximately 6-8 months) was “reduces tumour growth and metastasis”. Moreover, the “prostate cancer progression in the TRAMP mouse model” value in data set [1] is “inhibited”.
